Measured values taken from patent US11401277B2, “Anti-bacterial heterocyclic compounds and their synthesis” (Bugworks Research, Inc., priority 2017, dated 2022).
≈ marks a conversion by molar mass, not a printed value. Where “and” joins values, the source holds several entries; their conditions need not be identical. Identical values can stand only once.

What was measured:
[1] = target: E. coli topoisomerase IV (Escherichia coli, UniProt P0AFI2+P20083); assay: biochemical; conditions: gel based decatenation assay; read-out: E. coli Topo IV IC50
E. coli topoisomerase IV, sequence (P20083 whole entry): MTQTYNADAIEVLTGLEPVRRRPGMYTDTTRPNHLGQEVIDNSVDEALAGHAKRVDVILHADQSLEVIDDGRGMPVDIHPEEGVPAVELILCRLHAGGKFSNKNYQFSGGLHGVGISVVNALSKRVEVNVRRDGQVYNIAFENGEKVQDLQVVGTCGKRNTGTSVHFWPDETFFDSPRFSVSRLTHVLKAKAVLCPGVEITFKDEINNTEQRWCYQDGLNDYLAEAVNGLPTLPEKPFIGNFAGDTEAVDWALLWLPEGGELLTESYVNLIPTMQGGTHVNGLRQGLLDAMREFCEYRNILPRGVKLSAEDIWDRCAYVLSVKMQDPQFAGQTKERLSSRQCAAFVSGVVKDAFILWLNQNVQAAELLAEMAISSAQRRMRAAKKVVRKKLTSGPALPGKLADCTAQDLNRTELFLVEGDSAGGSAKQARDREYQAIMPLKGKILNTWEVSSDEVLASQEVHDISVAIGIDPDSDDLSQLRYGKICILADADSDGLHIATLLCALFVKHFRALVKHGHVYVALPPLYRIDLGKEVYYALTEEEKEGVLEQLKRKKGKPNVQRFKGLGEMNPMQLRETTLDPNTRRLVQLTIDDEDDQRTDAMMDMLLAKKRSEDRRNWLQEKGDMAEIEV
E. coli topoisomerase IV, sequence (P0AFI2 whole entry): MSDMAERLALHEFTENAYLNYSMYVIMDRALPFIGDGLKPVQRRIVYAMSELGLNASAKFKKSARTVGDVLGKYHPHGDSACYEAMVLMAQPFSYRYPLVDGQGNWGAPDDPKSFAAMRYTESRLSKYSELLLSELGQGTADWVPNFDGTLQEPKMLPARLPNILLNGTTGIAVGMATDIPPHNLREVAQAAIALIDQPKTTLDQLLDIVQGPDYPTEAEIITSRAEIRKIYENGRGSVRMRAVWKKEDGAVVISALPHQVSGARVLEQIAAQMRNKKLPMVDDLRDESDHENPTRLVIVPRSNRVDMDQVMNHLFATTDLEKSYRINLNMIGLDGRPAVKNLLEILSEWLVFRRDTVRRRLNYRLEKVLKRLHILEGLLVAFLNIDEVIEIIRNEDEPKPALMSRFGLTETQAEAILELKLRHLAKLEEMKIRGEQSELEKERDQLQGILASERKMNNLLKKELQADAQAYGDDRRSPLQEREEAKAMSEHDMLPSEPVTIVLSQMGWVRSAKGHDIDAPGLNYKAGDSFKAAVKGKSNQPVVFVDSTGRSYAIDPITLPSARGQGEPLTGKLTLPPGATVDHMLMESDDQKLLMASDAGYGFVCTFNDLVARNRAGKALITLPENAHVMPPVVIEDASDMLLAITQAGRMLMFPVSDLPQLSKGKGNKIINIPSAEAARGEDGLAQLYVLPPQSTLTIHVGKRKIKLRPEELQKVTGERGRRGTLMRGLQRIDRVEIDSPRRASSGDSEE

[2] = target: T1, hERG potassium channel (Homo sapiens, UniProt Q12809); assay: hERG inhibition assay, QPatch HTX automated electrophysiology; assay type: cell-based; conditions: CHO cell line expressing hERG; whole-cell patch clamp, room temperature
T1 construct: Chinese Hamster Ovary cell line stably expressing the full-length hERG potassium channel; expressed in transfected cells
T1 sequence (Q12809 whole entry): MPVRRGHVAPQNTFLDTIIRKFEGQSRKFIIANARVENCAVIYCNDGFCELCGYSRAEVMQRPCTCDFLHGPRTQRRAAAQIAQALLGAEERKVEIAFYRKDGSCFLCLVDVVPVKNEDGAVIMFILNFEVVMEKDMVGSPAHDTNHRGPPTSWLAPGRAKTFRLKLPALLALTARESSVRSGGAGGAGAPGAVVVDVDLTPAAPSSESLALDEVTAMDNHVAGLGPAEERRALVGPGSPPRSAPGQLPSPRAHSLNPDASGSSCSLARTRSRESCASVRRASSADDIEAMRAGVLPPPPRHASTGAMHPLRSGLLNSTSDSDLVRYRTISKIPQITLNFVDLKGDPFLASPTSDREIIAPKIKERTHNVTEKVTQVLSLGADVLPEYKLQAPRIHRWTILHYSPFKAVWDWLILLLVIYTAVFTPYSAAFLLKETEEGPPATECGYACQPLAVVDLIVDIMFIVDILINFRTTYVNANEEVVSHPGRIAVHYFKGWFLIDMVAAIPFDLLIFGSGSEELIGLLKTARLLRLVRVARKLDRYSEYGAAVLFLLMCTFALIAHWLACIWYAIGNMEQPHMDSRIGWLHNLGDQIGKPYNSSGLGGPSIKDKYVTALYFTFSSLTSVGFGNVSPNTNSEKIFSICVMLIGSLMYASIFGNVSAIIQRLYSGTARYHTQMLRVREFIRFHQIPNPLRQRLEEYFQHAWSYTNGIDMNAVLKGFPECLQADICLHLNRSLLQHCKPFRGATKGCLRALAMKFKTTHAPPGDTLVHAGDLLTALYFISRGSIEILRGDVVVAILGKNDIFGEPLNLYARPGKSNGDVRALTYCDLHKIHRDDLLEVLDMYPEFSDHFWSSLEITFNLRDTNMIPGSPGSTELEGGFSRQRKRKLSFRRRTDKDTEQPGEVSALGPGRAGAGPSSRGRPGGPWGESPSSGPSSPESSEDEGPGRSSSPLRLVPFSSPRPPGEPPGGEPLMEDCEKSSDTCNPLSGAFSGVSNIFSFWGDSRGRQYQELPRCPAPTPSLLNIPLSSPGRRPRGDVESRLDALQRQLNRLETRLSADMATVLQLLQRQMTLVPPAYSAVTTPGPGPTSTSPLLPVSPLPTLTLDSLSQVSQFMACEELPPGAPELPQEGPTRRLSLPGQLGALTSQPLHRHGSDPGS
Method: The compounds were tested for inhibition of the human ether a go-go related gene (hERG) K+ channel using QPatch HTX automated electrophysiology.
Compounds of Formula I were solubilised to 100 mM in DMSO before dilution in HBPS to 300 μM.
Electrophysiological recordings were made from a Chinese Hamster Ovary cell line stably expressing the full-length hERG potassium channel. Single cell ionic currents were measured in whole-cell patch clamp configuration at room temperature (21-23° C.) using the QPatch HTX platform (Sophion). Intracellular solution contained (mM): 120 KF, 20 KCl, 10 EGTA, 10 HEPES and was buffered to pH 7.3. […] Cells were clamped at a holding potential of −80 mV. Cells were stepped to +20 mV for 2 s then −40 mV for 3 s before returning to the holding potential. This sweep was repeated 10 times at 10 s intervals. hERG currents were measured from the tail step and referenced to the holding current. Compounds were then incubated for 2 minutes prior to a second measurement of ion channel current using an identical pulse train.

[3] = test system: S. aureus ATCC 29213; assay: MIC studies in LB Media; assay type: cell-based; conditions: Staphylococcus aureus, ATCC29213, MIC = 90% inhibition of growth, read-out: Minimum Inhibitory Concentration in LB Media, S. au
Method: (§1) Bacterial cultures that were stored as glycerol stocks at −80° C. were sub cultured on LB agar plates to obtain isolated colonies. A single colony of each strain was cultured in LB broth. The cultures were incubated at 37° C., 200 rpm till they reach an optical density (OD at 600 nm) of 0.8 to 1. […] Test compounds were dissolved in dimethyl sulfoxide (DMSO) to a stock concentration of 4 mg/ml. A two-fold dilution series of this DMSO stock was prepared in a 96 well V bottom microtitre plate from rows A to H. A 3 μL volume of these dilutions were transferred to a 96-well flat bottom microtitre assay plate. Controls to monitor the effects of DMSO and media sterility were included. Each well was inoculated with 150 μL of the above diluted culture. The plates were incubated at 37° C. overnight in a humidified incubator. The following morning, the plates were read using a Spectrophotometer at 600 nm wavelength.

[4] = test system: E. faecalis ATCC 29212; assay: MIC studies in LB Media; assay type: cell-based; conditions: Enterococcus faecalis, ATCC29212, read-out: Minimum Inhibitory Concentration in LB Media, E. fa
Method: as §1

[5] = test system: E. coli ATCC 25922; assay: MIC studies in LB Media; assay type: cell-based; conditions: Escherichia coli, ATCC25922, read-out: Minimum Inhibitory Concentration in LB Media, E. co
Method: as §1

[6] = test system: A. baumannii ATCC 19606; assay: MIC studies in LB Media; assay type: cell-based; conditions: Acinetobacter baumannii, ATCC19606, read-out: Minimum Inhibitory Concentration in LB Media, A. ba
Method: as §1

[7] = test system: P. aurigenosa ATCC 27853; assay: MIC studies in LB Media; assay type: cell-based; conditions: Pseudomonas aeruginosa, ATCC27853, read-out: Minimum Inhibitory Concentration in LB Media, P. ae
Method: as §1

[8] = test system: K. pneumoniae ATCC 13883; assay: MIC studies in LB Media; assay type: cell-based; conditions: Klebsiella pneumoniae, ATCC13883, read-out: Minimum Inhibitory Concentration in LB Media, K. pn
Method: as §1

[9] = target: E. coli DNA gyrase (Escherichia coli, UniProt P0AES4+P0AES6); assay: biochemical; conditions: gel based supercoiling assay; read-out: E. coli DNA Gyrase IC50
E. coli DNA gyrase, sequence (P0AES4 whole entry, one chain of several): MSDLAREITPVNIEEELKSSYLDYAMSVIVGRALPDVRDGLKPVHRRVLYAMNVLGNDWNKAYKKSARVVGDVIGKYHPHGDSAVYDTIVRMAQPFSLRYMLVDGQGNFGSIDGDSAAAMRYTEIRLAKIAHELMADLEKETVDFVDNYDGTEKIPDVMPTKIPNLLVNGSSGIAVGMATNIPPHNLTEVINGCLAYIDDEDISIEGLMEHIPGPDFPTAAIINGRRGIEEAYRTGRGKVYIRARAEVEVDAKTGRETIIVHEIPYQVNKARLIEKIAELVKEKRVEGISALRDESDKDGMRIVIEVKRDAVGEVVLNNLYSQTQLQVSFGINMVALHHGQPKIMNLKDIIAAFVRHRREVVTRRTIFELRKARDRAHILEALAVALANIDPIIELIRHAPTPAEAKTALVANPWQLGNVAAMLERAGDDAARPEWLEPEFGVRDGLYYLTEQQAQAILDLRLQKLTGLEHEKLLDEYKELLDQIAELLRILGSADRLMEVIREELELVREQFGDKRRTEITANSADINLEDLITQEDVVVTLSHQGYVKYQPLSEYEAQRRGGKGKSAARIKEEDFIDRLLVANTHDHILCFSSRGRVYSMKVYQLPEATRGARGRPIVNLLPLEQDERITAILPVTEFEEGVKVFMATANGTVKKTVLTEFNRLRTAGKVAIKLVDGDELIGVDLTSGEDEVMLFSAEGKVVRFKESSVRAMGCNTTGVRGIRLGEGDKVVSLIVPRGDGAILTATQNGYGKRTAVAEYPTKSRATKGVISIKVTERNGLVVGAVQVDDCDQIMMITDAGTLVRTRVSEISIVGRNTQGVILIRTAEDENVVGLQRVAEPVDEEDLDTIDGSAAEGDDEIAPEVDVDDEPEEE

[10] = test system: E. coli [ATCC25922]; assay: Neutropenic Thigh Infection Model in Rat, E. coli; assay type: in vivo; conditions: 10 mg/kg, i.v. bolus
[11] = test system: K. pneumoniae [ATCC13883]; assay: Neutropenic Thigh Infection Model in Rat, K. pneumoniae; assay type: in vivo; conditions: 10 mg/kg, i.v. bolus
[12] = test system: Morganella morganii ATCC 25830; assay: MIC studies in LB Media; assay type: cell-based; conditions: ATCC25830, read-out: Minimum Inhibitory Concentration in LB Media, M. mo
Method: as §1

[13] = test system: Citrobacter freundii ATCC 43864; assay: MIC studies in LB Media; assay type: cell-based; conditions: ATCC43864, read-out: Minimum Inhibitory Concentration in LB Media, C. fr
Method: as §1

[14] = test system: Proteus mirabilis ATCC 43071; assay: MIC studies in LB Media; assay type: cell-based; conditions: ATCC43071, read-out: Minimum Inhibitory Concentration in LB Media, P. mi
Method: as §1

[15] = test system: Enterobacter cloacae ATCC 13047; assay: MIC studies in LB Media; assay type: cell-based; conditions: ATCC13047, read-out: Minimum Inhibitory Concentration in LB Media, E. cl
Method: as §1

[16] = individual animals, 10 hr post infection

SMILES | IC50 [1] [µM] | IC50 [2] [µM] | MIC [3] [µg/mL] | MIC [4] [µg/mL] | MIC [5] [µg/mL] | MIC [6] [µg/mL] | MIC [7] [µg/mL] | MIC [8] [µg/mL] | IC50 [9] [µM] | Mean Log 10 CFU/thigh reduction (wrt 2 h PI control: 5.04 Log10CFU/g thigh) [10] [Log 10 CFU/thigh] | MEAN ± SD (Log10 CFU/g thigh) ([10]; 10 hr post infection) | Log10 CFU/g thigh [10, 16] | MEAN ± SD (Log10 CFU/g thigh) [11] [Log10 CFU/g thigh] | Mean Log 10 CFU/thigh reduction (wrt 2 h PI control: 5.04 Log10CFU/g thigh) [11] [Log 10 CFU/thigh] | Log10 CFU/g thigh [11, 16] | MIC [12] [µg/mL] | MIC [13] [µg/mL] | MIC [14] [µg/mL] | MIC [15] [µg/mL]
Cc1cc(=O)n(C)c2c(OCCNC[C@H]3CN(c4cnc5c(n4)NC(=O)CO5)C(=O)O3)c(F)ccc12 [Compound 5, (S)-6-(5-(((2-((7-fluoro-1,4-dimethyl-2-oxo-1,2-dihydroquinolin-8-yl)oxy)ethyl)amino)methyl)-2-oxooxazolidin-3-yl)-2H-pyrazino[2,3-b][1,4]oxazin-3(4H)-one] | < 0.187 | 71 | 0.125 (≈ 0.251 µM) | 0.125 (≈ 0.251 µM) | 0.06 (≈ 0.12 µM) | 0.25 (≈ 0.502 µM) | 1 (≈ 2.01 µM) | 0.25 (≈ 0.502 µM) | 0.033 | – | – | – | – | – | – | – | – | – | –
O=C(O)c1cn(C2CC2)c2cc(N3CCNCC3)c(F)cc2c1=O [Ciprofloxacin, ciprofloxacin, reference compound] | – | – | – | – | – | – | – | – | – | 2.12 | 3.73 ± 0.21 | 3.74 Log10 CFU/g thigh and 3.94 Log10 CFU/g thigh and 3.52 Log10 CFU/g thigh | 3.30 ± 0.11 | 1.74 | 3.22 Log10 CFU/g thigh and 3.25 Log10 CFU/g thigh and 3.42 Log10 CFU/g thigh | – | – | – | –
Cn1c(=O)cnc2ccc(F)c(OCCNC[C@@H]3CN(c4cnc5c(n4)NC(=O)CO5)C(=O)O3)c21 [Compound 8, (R)-6-(5-(((2-((6-fluoro-4-methyl-3-oxo-3,4-dihydroquinoxalin-5-yl)oxy)ethyl)amino)methyl)-2-oxooxazolidin-3-yl)-2H-pyrazino[2,3-b][1,4]oxazin-3(4H)-one] | – | 58 | ≤ 0.015 | 0.06 (≈ 0.124 µM) | 0.03 (≈ 0.0618 µM) | 0.06 (≈ 0.124 µM) | 0.5 (≈ 1.03 µM) | 0.06 (≈ 0.124 µM) | – | – | – | – | – | – | – | 0.03 (≈ 0.0618 µM) | 0.06 (≈ 0.124 µM) | 0.25 (≈ 0.515 µM) | 0.125 (≈ 0.258 µM)
Cn1c(=O)ccc2ncc(Cl)c(OCCNC[C@H]3CN(c4cnc5c(n4)NC(=O)CO5)C(=O)O3)c21 [Compound 6, (S)-6-(5-(((2-((3-chloro-5-methyl-6-oxo-5,6-dihydro-1,5-naphthyridin-4-yl)oxy)ethyl)amino)methyl)-2-oxooxazolidin-3-yl)-2H-pyrazino[2,3-b][1,4]oxazin-3(4H)-one] | 17.7 | – | > 4 | > 4 | > 4 | > 4 | > 4 | > 4 | 6.33 | – | – | – | – | – | – | > 4 | > 4 | > 4 | > 4
Cc1nc2ccc(F)c(OCCNC[C@H]3CN(c4cnc5c(n4)NC(=O)CO5)C(=O)O3)c2n(C)c1=O [Compound 9, (S)-6-(5-(((2-((6-fluoro-2,4-dimethyl-3-oxo-3,4-dihydroquinoxalin-5-yl)oxy)ethyl)amino)methyl)-2-oxooxazolidin-3-yl)-2H-pyrazino[2,3-b][1,4]oxazin-3(4H)-one] | – | – | ≤ 0.06 | 0.25 (≈ 0.501 µM) | 0.125 (≈ 0.25 µM) | 0.125 (≈ 0.25 µM) | 4 (≈ 8.01 µM) | 0.5 (≈ 1 µM) | 0.04 | – | – | – | – | – | – | 0.5 (≈ 1 µM) | 0.25 (≈ 0.501 µM) | 2 (≈ 4 µM) | 1 (≈ 2 µM)
Cn1c(=O)ccc2ccc(F)c(OCCNC[C@@H]3CN(c4cnc5c(n4)NC(=O)CO5)C(=O)O3)c21 [Compound 3, (R)-6-(5-(((2-((7-fluoro-1-methyl-2-oxo-1,2-dihydroquinolin-8-yl)oxy)ethyl)amino)methyl)-2-oxooxazolidin-3-yl)-2H-pyrazino[2,3-b][1,4]oxazin-3(4H)-one] | – | 25 | 0.015 (≈ 0.031 µM) | 0.06 (≈ 0.124 µM) | 0.06 (≈ 0.124 µM) | 0.06 (≈ 0.124 µM) | 0.5 (≈ 1.03 µM) | 0.06 (≈ 0.124 µM) | 0.011 | – | – | – | – | – | – | 0.03 (≈ 0.0619 µM) | 0.06 (≈ 0.124 µM) | 0.125 (≈ 0.258 µM) | 0.125 (≈ 0.258 µM)
